pIC50: −log10 of the molar value. Like-named read-outs stand apart in the source and are kept apart here.
Experiments:
[1] = target: recombinant human Mcl-1 (residues 171-327) / Bim interaction (Homo sapiens (Human), UniProt Q07820); experiment: biochemical; type: binding; conditions: read-out: Mcl-1 HTRF IC50
[2] = tested on: human multiple myeloma cell line, OPM-2; experiment: Cell viability assay (OPM-2 10 FBS), CellTiter-Glo; type: cell-based
Procedure, shortened: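 IC50 values come from 4-parameter logistic fits of luminescence signals reflecting cell viability. Treatment lasted 16 h at 37 °C in complete medium with 10% FBS, starting from 3000 cells/well.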

[3] = TR-FRET, Mcl-1(171-327) / biotin-Bim (51-76)
[4] = Homo sapiens, OPM-2, 16 h, read-out: OPM-2 10% FBS IC50 IP, OPM-2 cells, 10% FBS, 16 h, CellTiter-Glo
[5] = 0.1 nM Mcl-1(171-327), 0.05 nM biotin-Bim (51-76)
[6] = read-out: OPM-2 10% FBS IC50 IP, OPM-2 cells, 10% FBS, 16 h incubation
[7] = read-out: OPM-2 10% FBS IC50 IP, OPM-2 cells, 10% FBS, 16 h, CellTiter-Glo
[8] = Homo sapiens, OPM-2, 16 h, read-out: OPM-2 10% FBS IC50 IP, OPM-2 cells, 10% FBS, 16 h incubation

Sequence of recombinant human Mcl-1 (residues 171-327) / Bim interaction (Q07820 171-327): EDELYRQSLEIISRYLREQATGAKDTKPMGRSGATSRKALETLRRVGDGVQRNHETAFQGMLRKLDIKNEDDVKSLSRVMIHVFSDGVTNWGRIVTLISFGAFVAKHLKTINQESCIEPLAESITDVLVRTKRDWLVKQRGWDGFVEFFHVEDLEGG

Row | Structure (SMILES) | pIC50 [1, 3] | pIC50 [2, 4] | further results
1 | C[C@@H]1[C@@H](C)C[C@@H]2C=CC[C@](O)(C2)[C@@H]2CC[C@H]2CN2C[C@@]3(CCCc4cc(Cl)ccc43)COc3ccc(cc32)C(=O)NS1(=O)=O [Example 100056, (1S,3′R,6′R,7′S,11′S,13′S,14′R)-6-chloro-7′-hydroxy-13′,14′-dimethyl-3,4-dihydro-2H,17′H-spiro[naphthalene-1,24′-[22]oxa[15]thia[1,16]diazapentacyclo [16.7.2.1~7,11~.0~3,6~.0~21,26~]octacosa [9,18,20,26]tetraen]-17′-one 15′,15′-dioxide] | 9.37 | 5.77 | 
2 | CO[C@@]1(CN2CCN3CC[C@H](F)C[C@@H]3C2)/C=C/C[C@H](C)[C@@H](C)S(=O)(=O)NC(=O)c2ccc3c(c2)N(C[C@@H]2CC[C@H]21)C[C@@]1(CCCc2cc(Cl)ccc21)CO3 (single isomer, unassigned) [Example 283] |  |  | pIC50 [1, 5]: 9.45; pIC50 [2, 6]: 6.08
3 | CCN(CC)C(=O)C[C@]1(O)/C=C/C[C@H](C)[C@@H](C)S(=O)(=O)NC(=O)c2ccc3c(c2)N(C[C@@H]2CC[C@H]21)C[C@@]1(CCCc2cc(Cl)ccc21)CO3 [Example 100083, 2-((1S,3′R,6′R,7′S,8′E,11′S,12′R)-6-chloro-7′-hydroxy-11′,12′-dimethyl-13′,13′-dioxido-15′-oxo-3,4-dihydro-2H-spiro[naphthalene-1,22′-[20]oxa[13]thia[1,14]diazatetracyclo [14.7.2.0~3,6~.0~19,24~]pentacosa[8,16,18,24]tetraen]-7′-yl)-N,N-diethylacetamide] | 9.75 | 6.91 | 
4 | C[C@@H]1[C@@H](C)CCC[C@@](O)(COS(C)(=O)=O)[C@@H]2CC[C@H]2CN2C[C@@]3(CCCc4cc(Cl)ccc43)COc3ccc(cc32)C(=O)NS1(=O)=O [Example 100271, ((1S,3′R,6′R,7′S,11′S,12′R)-6-chloro-7′-hydroxy-11′,12′-dimethyl-13′,13′-dioxido-15′-oxo-3,4-dihydro-2H-spiro[naphthalene-1,22′-[20]oxa[13]thia[1,14]diazatetracyclo [14.7.2.0~3,6~.0~19,24~]pentacosa[16,18,24]trien]-7′-yl)methyl methanesulfonate] |  |  | pIC50 [1]: 8.61; pIC50 [2, 7]: 5.21
5 | C=CCC[C@@]1(O)/C=C/C[C@H](C)[C@@H](C)S(=O)(=O)NC(=O)c2ccc3c(c2)N(C[C@@H]2CC[C@H]21)C[C@@]1(CCCc2cc(Cl)ccc21)CO3 [Example 100158, (1S,3′R,6′R,7′R,8′E,11′S,12′R)-7′-(3-buten-1-yl)-6-chloro-7′-hydroxy-11′,12′-dimethyl-3,4-dihydro-2H,15′H-spiro[naphthalene-1,22′-[20]oxa[13]thia[1,14]diazatetracyclo [14.7.2.0~3,6~.0~19,24~]pentacosa[8,16,18,24]tetraen]-15′-one 13′,13′-dioxide] | 9.53 |  | pIC50 [2, 7]: 6.59
6 | Cc1nccnc1C[C@@]1(O)/C=C/C[C@H](C)[C@@H](C)S(=O)(=O)NC(=O)c2ccc3c(c2)N(C[C@@H]2CC[C@H]21)C[C@@]1(CCCc2cc(Cl)ccc21)CO3 [Example 100526, (1S,3′R,6′R,7′R,8′E,11′S,12′R)-6-chloro-7′-hydroxy-11′,12′-dimethyl-7′-((3-methyl-2-pyrazinyl)methyl)-3,4-dihydro-2H,15′H-spiro[naphthalene-1,22′-[20]oxa[13]thia[1,14]diazatetracyclo [14.7.2.0~3,6~.0~19,24~]pentacosa[8,16,18,24]tetraen]-15′-one 13′,13′-dioxide] | 9.41 | 6.08 | 
7 | CO[C@@]1([C@H](C)O)CCC[C@H](C)[C@@H](C)S(=O)(=O)NC(=O)c2ccc3c(c2)N(C[C@@H]2CC[C@H]21)C[C@@]1(CCCc2cc(Cl)ccc21)CO3 (single isomer, unassigned) [Example 100482] | 9.74 | 6.98 | 
8 | CO[C@@]1(CC(=O)N(C)C)/C=C/C[C@H](C)[C@@H](C)S(=O)(=O)NC(=O)c2ccc3c(c2)N(C[C@@H]2CC[C@H]21)C[C@@]1(CCCc2cc(Cl)ccc21)CO3 [Example 100002, 2-((1 S,3′R,6′R,7′S,8′E,11′S, 12′R)-6-chloro-7′-methoxy-11′,12′-dimethyl-13′,13′-dioxido-15′-oxo-3,4-dihydro-2H-spiro[naphthalene-1,22′-[20]oxa[13]thia[1,14]diazatetracyclo[14.7.2.0-3,6˜.0˜19,24˜]pentacosa[8,16,18,24]tetraen]-7′-yl)-N,N-dimethylacetamide] | 10.15 |  | pIC50 [2, 7]: 7.39
9 | CO[C@@]1(CCO)/C=C/C[C@H](C)[C@@H](C)S(=O)(=O)N(C)C(=O)c2ccc3c(c2)N(C[C@@H]2CC[C@H]21)C[C@@]1(CCCc2cc(Cl)ccc21)CO3 [Example 100219, (1S,3′R,6′R,7′S,8′E,11′S,12′R)-6-chloro-7′-(2-hydroxyethyl)-7′-methoxy-11′,12′,14′-trimethyl-3,4-dihydro-2H,15′H-spiro[naphthalene-1,22′-[20]oxa[13]thia[1,14]diazatetracyclo [14.7.2.0~3,6~.0~19,24~]pentacosa[8,16,18,24]tetraen]-15′-one 13′,13′-dioxide] | 9.40 | 6.01 | 
10 | C[C@@H]1[C@@H](C)CCC[C@@]2(OCCO[C@H]2C=O)[C@@H]2CC[C@H]2CN2C[C@@]3(CCCc4cc(Cl)ccc43)COc3ccc(cc32)C(=O)NS1(=O)=O (single isomer, unassigned) [Example 100495] | 9.34 | 6.27 | 
11 | CC(C)O[C@]1(CN2CCN3CCOC[C@@H]3C2)/C=C/C[C@H](C)[C@@H](C)S(=O)(=O)NC(=O)c2ccc3c(c2)N(C[C@@H]2CC[C@H]21)C[C@@]1(CCCc2cc(Cl)ccc21)CO3 [Example 47, (1S,3′R,6′R,7′R,8′E,11′S,12′R)-6-chloro-7′-((9aS)-hexahydropyrazino[2,1-c][1,4]oxazin-8(1H)-ylmethyl)-11′,12′-dimethyl-7′-(1-methylethoxy)-3,4-dihydro-2H,15′H-spiro[naphthalene-1,22′-[20]oxa[13]thia[1,14]diazatetracyclo [14.7.2.0~3,6~.0~19,24~]pentacosa[8,16,18,24]tetraen]-15′-one 13′,13′-dioxide] |  |  | pIC50 [1, 5]: 9.88; pIC50 [2, 8]: 6.55
12 | C=CC(=O)N1CCN2CCN(C[C@]3(OC)/C=C/C[C@H](C)[C@@H](C)S(=O)(=O)NC(=O)c4ccc5c(c4)N(C[C@@H]4CC[C@H]43)C[C@@]3(CCCc4cc(Cl)ccc43)CO5)C[C@H]2C1 [Example 234] |  |  | pIC50 [1, 5]: 9.79; pIC50 [2, 6]: 7.15
13 | C[C@@H]1[C@@H](C)C/C=C/[C@@](O)([C@@H]2CCN(C)C2=O)[C@@H]2CC[C@H]2CN2C[C@@]3(CCCc4cc(Cl)ccc43)COc3ccc(cc32)C(=O)NS1(=O)=O [Example 100137, (1S,3′R,6′R,7′S,8′E,11′S,12′R)-6-chloro-7′-hydroxy-11′,12′-dimethyl-7′-((3S)-1-methyl-2-oxo-3-pyrrolidinyl)-3,4-dihydro-2H,15′H-spiro[naphthalene-1,22′-[20]oxa[13]thia[1,14]diazatetracyclo [14.7.2.0~3,6~.0~19,24~]pentacosa[8,16,18,24]tetraen]-15′-one 13′,13′-dioxide] | 9.44 |  | pIC50 [2, 7]: 5.55
14 | C[C@@H]1[C@@H](C)CCC[C@](O)(COCCN(C)C)[C@@H]2CC[C@H]2CN2C[C@@]3(CCCc4cc(Cl)ccc43)COc3ccc(cc32)C(=O)NS1(=O)=O (stereo in doubt) [Example 100196] | 9.34 |  | pIC50 [2, 7]: 6.45
15 | CO[C@]1(CN2CC[C@@H]3CCCC[C@H]3C2)/C=C/C[C@H](C)[C@@H](C)S(=O)(=O)NC(=O)c2ccc3c(c2)N(C[C@@H]2CC[C@H]21)C[C@@]1(CCCc2cc(Cl)ccc21)CO3 (single isomer, unassigned) [Example 90] |  |  | pIC50 [1, 5]: 8.33; pIC50 [2, 6]: 5.05
16 | CC[C@@H]1CC/C=C/[C@@](CN2CCN3CCOC[C@@H]3C2)(OC)[C@@H]2CC[C@H]2CN2C[C@@]3(CCCc4cc(Cl)ccc43)COc3ccc(cc32)C(=O)NS1(=O)=O [Example 30, (1S,3′R,6′R,7′R,8′E,12′R)-6-chloro-12′-ethyl-7′-((9aS)-hexahydropyrazino[2,1-c][1,4]oxazin-8(1H)-ylmethyl)-7′-methoxy-3,4-dihydro-2H,15′H-spiro[naphthalene-1,22′-[20]oxa[13]thia[1,14]diazatetracyclo [14.7.2.0~3,6~.0~19,24~]pentacosa[8,16,18,24]tetraen]-15′-one 13′,13′-dioxide] |  |  | pIC50 [1, 5]: 9.96; pIC50 [2, 8]: 6.78
17 | CO[C@@]1(C#CCCN2CCN3CCOC[C@@H]3C2)/C=C/C[C@H](C)[C@@H](C)S(=O)(=O)NC(=O)c2ccc3c(c2)N(C[C@@H]2CC[C@H]21)C[C@@]1(CCCc2cc(Cl)ccc21)CO3 [Example 100011, (1 S,3′R,6′R,7′S,8′E,11′S, 12′R)-6-chloro-7′-(4-((9aS)-hexahydropyrazino[2,1-c][1,4]oxazin-8(1H)-yl)-1-butyn-1-yl)-7′-methoxy-11′,12′-dimethyl-3,4-dihydro-2H,15′H-spiro[naphthalene-1,22′-[20]oxa[13]thia[1,14]diazatetracyclo[14.7.2.0-3,6˜.0˜19,24˜]pentacosa[8,16,18,24]tetraen]-15′-one 13′,13′-dioxide] | 9.82 | 6.87 | 
18 | C[C@@H]1[C@@H](C)CCC[C@@](O)(CC#N)[C@@H]2CC[C@H]2CN2C[C@@]3(CCCc4cc(Cl)ccc43)COc3ccc(cc32)C(=O)NS1(=O)=O (single isomer, unassigned) [Example 100081] | 8.13 | 5.23 | 

Source: patent publication US10821115B2, “Compounds that inhibit Mcl-1 protein” (priority 2017, dated 2020)
